One assay deals with JNK3 (Homo sapiens, UniProt P53779). The experiment in a line: Biochemical JNK3 kinase inhibition (Z'-lyte format).
Assay [1] relates to c-Jun phosphorylation. In words: LanthaScreen TR-FRET cell assay for c-Jun phosphorylation in HeLa cells. The following applies: for EC50: Homo sapiens, Hela cells, TNF-α stimulation, read-out: p-c-Jun EC50 (nM) Hela. The format is cell-based. The procedure:
Phosphorylation was determined by measuring the time resolved FRET (TR-FRET) between a terbium labeled phospho-c-Jun specific antibody and GFP. The cells were plated in white tissue culture treated 384 well plates at a density of 10,000 cell per well in 32 μL assay medium (Opti-MEM®, supplemented with 0.5% charcoal/dextran-treated FBS, 100 U/ml penicillin and 100 μg/ml streptomycin, 0.1 mM nonessential amino acids, 1 mM sodium pyruvate, 25 mM Hepes, pH 7.3, and lacking phenol red). After overnight incubation, cells were pretreated for 90 minutes with compound (at indicated concentration) diluted in 4 μL assay buffer followed by 30 min of stimulation with 5 ng/ml of TNF-α in 4 μL assay buffer (final assay volume was 40 μl). The medium was then removed by aspiration, and the cells were lysed by adding 20 μl of lysis buffer (20 mM Tris-HCl, pH 7.6, 5 mM EDTA, 1% Nonidet P-40 substitute, 5 mM NaF, 150 mM NaCl, and 1:100 protease and phosphatase inhibitor mix, SIGMA P8340 and P2850, respectively). The lysis buffer included 2 nM of the terbium-labeled anti-c-Jun (pSer73) detection antibodies (Life Technologies). After allowing the assay to equilibrate for 60 minutes at room temperature, TR-FRET emission ratios were determined on a BMG Pherastar fluorescence plate reader (BMG Labtech, Cary, N.C.) using the following parameters: excitation at 340 nm; emission at 520 nm and 490 nm; 100 μs lag time; 200 μs integration time; and emission ratio=Em520/Em490. All data were analyzed and plotted using Graphpad Prism 4.
(§1) In parallel with biochemical evaluation, the ability of the compounds to inhibit JNK activity in cells was investigated using two independent assays formats. This is a critical issue because there are several reported JNK inhibitors with nanomolar biochemical potency that translate into micromolar cellular inhibitors. The most well characterized direct phosphorylation substrate of JNK is the transcription factor c-Jun.
For orientation: TR-FRET usually uses a lanthanide donor and a delayed reading to cut background.

Assay [2] concerns c-Jun phosphorylation. The experiment in a line: High throughput microscopy of c-Jun phosphorylation in A375 cells. The format is cell-based. The following applies: Homo sapiens, A-375; A375 cells, anisomycin stimulation; read-out: p-c-Jun EC50 (nM) A375. The procedure: (§2) Cells were fixed in 2% paraformaldehyde for 10 min at room temperature and washed with PBS-T (Phosphate Buffered Saline, 0.1% Tween 20). Cells were permeabilized in methanol for 10 min at room temperature, washed with PBS-T, and blocked in Odyssey Blocking Buffer (LI-COR Biosciences) for 1 hour at room temperature. Cells were incubated overnight at 4° C. with antibody specific for Erk1/2(pT202/pY204), Akt(pS473), c-Jun(pS73), pP38(T180/Y182) and pSTAT3(Y705) (Cell Signaling Technology), pRSK1(S380) and pMSK1(S376) (Epitomics), and NF-κB (Santa Cruz Biotechnology) diluted 1:400 in Odyssey Blocking Buffer. […] Cells were washed twice with PBS and imaged in an imageWoRx high-throughput microscope (Applied Precision). Data were plotted using DataPflex.
as §1

For another assay, the system named is JNK. The experiment in a line: Binding kinetics (pulse-chase) assay, ATP-biotin labeling of JNK in A375 cells. The format is cell-based. The following applies: 1 μM compound. The protocol:
A375 cells were incubated with inhibitors for the indicated amount of time after which cell lysates were prepared and labeled with ATP-biotin. Biotinylated proteins were pulled down with streptavidin beads and material bound to the beads was eluted and separate by SDS-PAGE followed by Western blot analysis for JNK.
A375 cells (ATCC® CRL-1619™) were pre-treated with 1 μM compound for the indicated amounts of time. Remove the medium and wash 3 times with PBS. Resuspend the cell pellet with 1 mL Lysis Buffer (1% NP-40, 1% CHAPS, 25 mM Tris, 150 mM NaCl, Phosphatase Inhibitor Cocktail, Roche 04906845001, and Protease Inhibitor Cocktail Roche 11836170001). Rotate end-to-end for 30 min at 4° C. Lysates were cleared by centrifugation at 14000 rpm for 15 min in the Eppendorf. The cleared lysates gel filtered into Kinase Buffer (0.1% NP-40, 20 mM HEPES, 150 mM NaCl, Phosphatase Inhibitor Cocktail, and Protease Inhibitor Cocktail) using Bio-Rad 10DG colums. The total protein concentration of the gel-filtered lysate should be around 5-15 mg/ml. […]
In order to evaluate the kinetics with which JNK-IN-5 could covalently modify JNK in cells, a pulse-chase assay was developed . […] Streptavidin affinity chromatography is then used to isolate all biotinylated proteins and JNK protein is detected following SDS-PAGE and Western blotting (FIG. 8). […]

Assay [3] concerns 260 kinases in A375 cells. The experiment in a line: KiNativ cellular kinase selectivity profiling in A375 cells. The format is cell-based. The following applies: 1 μM, 3 hours. The protocol:
FIG. 9 illustrates the cellular kinase selectivity as assessed using the KiNativ™ technology.
The kinase selectivity of several key compounds was first evaluated using a chemical proteomic approach named KiNativ which detects 260 kinases in A375 cells (ActivX Biosciences). To probe the intracellular targets of the compounds, A375 cells were incubated with the inhibitors and then looked for protection of labeling by an ATP-biotin probe that non-specifically labels conserved lysines on kinases and other nucleotide-dependent enzymes. This provided an important advantage relative to the in vitro kinase selectivity profiling because in vitro the short incubation times and presence of reactive thiols in the buffers can potentially cause false negatives for acrylamide-modified kinase inhibitors. […] Since cysteine-directed covalent kinase inhibitors will sometimes cross-react with kinases that contain an equivalently placed cysteine, a sequence alignment was performed to identify all kinases which have a cysteine near JNK1 Cys116 (FIG. 10). […] The dramatic selectivity improvement that results from introduction of this flag-methyl group has been previously reported for imatinib (Zimmermann et al., 1996).

A further assay has as its target JNK1 (Homo sapiens, UniProt P45983). The experiment in a line: Biochemical JNK1 kinase inhibition (Z'-lyte format). The following applies: Table 2.
Assay [4] relates to NF-kB nuclear translocation. In words: High-throughput microscopy, NF-kB nuclear translocation. The format is cell-based. The following applies: Homo sapiens, A-375, A375 cells, TNF-α stimulation, read-out: Cellular EC50 NF-kB. The protocol: (§3) A375 cells were stimulated with anisomycin (FIGS. 14A and 14C to 14F), IGF-1 (FIG. 14B), IL-6 (FIG. 14G), and TNF-α (FIG. 14H) for sixty minutes. The output of multiple signaling pathways was measured using high throughput microscopy at multiple concentrations of four JNK inhibitors and a control compound specific to each pathway DMSO (FIG. 14A), MK2206 (allosteric Akt inhibitor, Haoyuan Chemexpress Co., Limited. Hirai, et al., 2010) (FIG. 14B), PD0325901 (allosteric Mek inhibitor, Haoyuan Chemexpress Co., Limited. Barrett, et al., 2008) (FIGS. 14C and 14D), SB239063 (ATP-competitive p38 inhibitor, Haoyuan Chemexpress Co., Limited. Underwood et al., 2000) (FIGS. 14E and 14F), KIN001-040 (ATP-competitive JAK1,2,3 inhibitor, Haoyuan Chemexpress Co., Limited. Thompson et al., 2002) (FIG. 14G), and KIN001-208 (IKK inhibitor VIII, Haoyuan Chemexpress Co., Limited., Murata, et al., 2004) (FIG. 14H).
(§4) Cells were plated at 7500 cells/well in 96-well microscopy plates (Corning) in recommended media for 24 hours, and then starved in media lacking serum for 16 hours. Cells were pre-treated for 180 minutes with 10-fold stock solutions of JNK inhibitors and for 10 min with control compounds MK2206, PD0325901, SB239063, KIN040, and KIN208 and treated with 10-fold stock solutions of IGF-1, IL-6, TNF-α (all PeproTech), or anisomycin for 60 minutes. Cells were fixed in 2% paraformaldehyde for 10 min at room temperature and washed with PBS-T (Phosphate Buffered Saline, 0.1% Tween 20). Cells were permeabilized in methanol for 10 min at room temperature, washed with PBS-T, and blocked in Odyssey Blocking Buffer (LI-COR Biosciences) for 1 hour at room temperature. Cells were incubated overnight at 4° C. with antibody specific for Erk1/2(pT202/pY204), Akt(pS473), c-Jun(pS73), pP38(T180/Y182) and pSTAT3(Y705) (Cell Signaling Technology), pRSK1(S380) and pMSK1(S376) (Epitomics), and NF-κB (Santa Cruz Biotechnology) diluted 1:400 in Odyssey Blocking Buffer. Cells were washed three times in PBS-T and incubated with rabbit-specific secondary antibody labeled with Alexa Fluor 647 (Invitrogen) diluted 1:2000 in Odyssey Blocking Buffer. Cells were washed once in PBS-T and once in PBS and incubated in 250 ng/ml Hoechst 33342 (Invitrogen) and 1:1000 Whole Cell Stain (blue; Thermo Scientific) solution. Cells were washed twice with PBS and imaged in an imageWoRx high-throughput microscope (Applied Precision). Data were plotted using DataPflex. […]

In another assay the test system is phosphorylation of Akt. The experiment in a line: High-throughput microscopy, phosphorylation of Akt. It counts as cell-based. The following applies: Homo sapiens, A-375, A375 cells, IGF-1 stimulation, read-out: Cellular EC50 pAkt. The procedure: as §3, §4
Another assay deals with phosphorylation of Erk. The experiment in a line: High-throughput microscopy, phosphorylation of Erk. It counts as cell-based. The following applies: Homo sapiens, A-375, A375 cells, anisomycin stimulation, read-out: Cellular EC50 pErk. The procedure: as §3, §4
The next assay deals with phosphorylation of Msk1. In words: High-throughput microscopy, phosphorylation of Msk1. The format is cell-based. The following applies: Homo sapiens, A-375, A375 cells, anisomycin stimulation, read-out: Cellular EC50 pMSK1. The procedure: A375 cells were stimulated with anisomycin (FIGS. 14A and 14C to 14F), IGF-1 (FIG. 14B), IL-6 (FIG. 14G), and TNF-α (FIG. 14H) for sixty minutes.
as §2

The subject of another assay is phosphorylation of p38. The experiment in a line: High-throughput microscopy, phosphorylation of p38. The format is cell-based. The following applies: Homo sapiens, A-375, A375 cells, anisomycin stimulation, read-out: Cellular EC50 pP38. The procedure: as §3, §4
The test system of a further assay is phosphorylation of RSK. In words: High-throughput microscopy, phosphorylation of RSK. The following applies: Homo sapiens, A-375, A375 cells, anisomycin stimulation, read-out: Cellular EC50 pRSK. It counts as cell-based. The procedure: as §3, §4
The next assay deals with phosphorylation of STAT3. In words: High-throughput microscopy, phosphorylation of STAT3. The following applies: Homo sapiens, A-375, A375 cells, IL-6 stimulation, read-out: Cellular EC50 pSTAT3. The format is cell-based. The protocol:
as §3, §4

The target in assay [5] is additional kinase targets. The experiment in a line: Follow-up enzymatic IC50 or Kd on potential additional kinase targets. The following applies: FIG. 12. The source says: Scores were obtained from the profiling against a […] using Kinome Scan™ technology as illustrated in FIG. 11.
To complement the KiNativ profiling, the in vitro kinase selectivity of several key compounds was comprehensively evaluated by two complementary approaches: a kinase-binding assays against a panel of 442 distinct kinases using the KINOMEscan methodology (DiscoverX) and a standard radioactivity-based enzymatic assays against a panel of 124 kinases (The National Centre for Protein Kinase Profiling in Dundee). […] It was attempted to confirm all these potent binding targets using either an enzymatic kinase assay or through the measurement of a dissociation constant to the kinase in question.

Assay [6] concerns panel of 442 distinct kinases. The experiment in a line: KINOMEscan kinase-binding panel. The following applies: concentration of 1.0 μM.

The structures appear in SMILES notation. “Also recorded” adds a separate entry of the source.

JNK3, sequence (P53779 whole entry): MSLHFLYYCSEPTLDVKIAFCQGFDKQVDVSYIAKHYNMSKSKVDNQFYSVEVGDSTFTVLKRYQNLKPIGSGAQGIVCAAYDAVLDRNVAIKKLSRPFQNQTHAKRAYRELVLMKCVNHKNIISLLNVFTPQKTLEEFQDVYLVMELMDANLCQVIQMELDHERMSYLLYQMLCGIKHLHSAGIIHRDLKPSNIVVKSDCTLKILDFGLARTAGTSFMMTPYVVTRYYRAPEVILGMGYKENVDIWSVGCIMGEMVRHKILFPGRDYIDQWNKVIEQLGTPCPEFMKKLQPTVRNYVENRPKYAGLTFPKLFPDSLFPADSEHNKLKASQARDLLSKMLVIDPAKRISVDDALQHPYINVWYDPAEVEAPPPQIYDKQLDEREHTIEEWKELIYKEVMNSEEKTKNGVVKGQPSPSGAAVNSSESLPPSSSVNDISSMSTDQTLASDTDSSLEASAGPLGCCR
JNK1, sequence (P45983 whole entry): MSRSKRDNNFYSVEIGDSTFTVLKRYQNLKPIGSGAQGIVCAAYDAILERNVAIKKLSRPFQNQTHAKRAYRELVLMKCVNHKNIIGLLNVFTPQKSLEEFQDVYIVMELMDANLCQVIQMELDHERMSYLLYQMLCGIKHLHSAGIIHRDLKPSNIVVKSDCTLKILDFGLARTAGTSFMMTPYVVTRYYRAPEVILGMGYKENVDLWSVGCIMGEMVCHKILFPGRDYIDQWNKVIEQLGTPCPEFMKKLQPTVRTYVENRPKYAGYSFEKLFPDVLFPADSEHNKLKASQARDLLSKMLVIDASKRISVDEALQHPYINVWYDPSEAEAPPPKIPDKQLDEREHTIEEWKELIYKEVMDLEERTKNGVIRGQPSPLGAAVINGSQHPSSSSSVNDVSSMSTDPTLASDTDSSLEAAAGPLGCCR

One may read the IC50 as the midpoint of a concentration-inhibition curve. The term EC50 denotes the concentration needed to bring the measured effect to its halfway point. Consider `CCC(=O)Nc1cccc(C(=O)Nc2ccc(Nc3nccc(-c4cccnc4)n3)cc2)c1` [JNK-IN-6], for which the IC50 at JNK3 (Table 2) was 148 nM. The “fold less potent biochemical IC50” value on JNK3 (on JNK1, 2, and 3, relative to JNK-IN-5) is reported as around 100 fold. Also, the EC50 in the assay on c-Jun phosphorylation [1] was determined as 6760 nM; in the assay with c-Jun phosphorylation [2], 1900 nM. Also, the “cellular IC50 fold higher than covalent analog JNK-IN-5” value in the assay with c-Jun phosphorylation [1] (cellular c-Jun phosphorylation, relative to JNK-IN-5) amounted to 50 fold. For the same compound, the “protection of JNK from labeling by ATP-biotin” value in the assay with JNK was “incapable of protecting JNK from labeling by ATP-biotin; also recorded: no protection of JNK labeling”. For the same compound, in [3], the “KiNativ result for JNK after live cell treatment” value is “did not inhibit JNK activity”.

`CN(C)C/C=C/C(=O)Nc1cccc(C(=O)Nc2ccc(Nc3nccc(-c4cccnc4)n3)cc2)c1` [JNK-IN-7] yielded an IC50 at JNK1 of 1.54 nM. Moreover, the EC50 was 130 nM with c-Jun phosphorylation [1]; above 10 µM in assay [4]; above 10 µM in the assay on phosphorylation of Akt; above 10 µM with phosphorylation of Erk; above 10 µM in the assay with phosphorylation of Msk1; above 10 µM in the assay on phosphorylation of p38. Besides, the EC50 with phosphorylation of RSK and with phosphorylation of STAT3 was above 10 µM in each case. The “Kd or IC50 against eight additional kinases” value in assay [5] is at most 0.1 µM. Moreover, the “number of kinases with binding inhibition of 95% or more” value in assay [6] was “approximately 14 kinases”.

The values are drawn from patent publication US10144730B2, “Inhibitors of c-Jun-N-terminal kinase (JNK)” (Dana-Farber Cancer Institute, Inc., priority 2011, dated 2018).
